Measurements as given in patent US4232035A, “Carbamate pesticidal compounds compositions and methods of use” (priority 1975, dated 1980).

What was measured:
[1] = system: house flies (Musca domestica, L.); test: Fly Bait Test; type: in vivo; parameters: key: A: excellent control; B: partial control; C: no control; conditions: 500 parts per million bait in sugar solution; twenty four hours
Description: (§1) Suspensions of the test compounds were prepared by dissolving one gram of compound in 50 milliliters of acetone in which had been dissolved 0.1 gram (10 percent of the weight of compound) of an alkylphenoxy polyethoxyethanol surfactant, as an emulsifying or dispersing agent. The resulting solution was mixed into 150 milliliters of water to give roughly 200 milliliters of a suspension containing the compound in finely divided form. The thus-prepared stock suspension contained 0.5 percent by weight of compound. The test concentrations in parts per million by weight employed in the tests described hereinbelow were obtained by appropriate dilutions of the stock suspension with water. The test procedures were as follows:
Four to six day old adult house flies (Musca domestica, L.) reared according to the specifications of the Chemical Specialties Manufacturing Association (Blue Book, McNair-Dorland Co., N.Y. 1954; pages 243-244, 261) under controlled conditions of 80°±5° F. and 50±5 percent relative humidity, were the test insects. The flies were immobilized by anesthetizing with carbon dioxide and twenty five immobilized individuals, males and females, were transferred to a cage consisting of a standard food strainer about five inches in diameter which was inverted over a wrapping-paper-covered surface. The test compounds were formulated by diluting the stock suspension with a 10 percent (by weight) sugar solution to give a suspension containing 500 parts of test compound per million parts of final formulation, by weight. Ten milliliters of the test formulation were added to a souffle cup containing a one-inch square of an absorbent cotton pad. This bait cup was introduced and centered on the blotting paper under the food strainer prior to admitting the anesthetized flies. The caged flies were allowed to feed on the bait for twenty four hours, at a temperature of 80°±5° F. and the relative humidity of 50±5 percent.

[2] = system: two-spotted mite (Tetranychus urticae Koch); test: Mite Foliage Spray Test; type: in vivo; parameters: key: A: excellent control; B: partial control; C: no control; conditions: 500 parts per million foliage spray; six days
Description: as §1
Adults and nymphal stages of the two-spotted mite (Tetranychus urticae Koch), reared on Tendergreen bean plants at 80±5 percent relative humidity, were the test organisms. Infested leaves from a stock culture were placed on the primary leaves of two bean plants six to eight inches in height, growing in a two-and-a-half inch clay pot. 150-200 Mites, a sufficient number for testing, transferred from the excised leaves to the fresh plants in a period of twenty four hours. Following the twenty four hour transfer period, the excised leaves were removed from the infested plants. The test compounds were formulated by diluting the stock suspension with water to give a suspension containing 500 parts of test compound per million parts of final formulation. The potted plants (one pot per compound) were placed on a revolving turntable and sprayed with 100-110 milliliters of test compound formulation by use of a DeVilbiss spray gun set at 40 psig. air pressure. This application, which lasted 25 seconds, was sufficient to wet the plants to run-off. As a control, 100-110 milliliters of a water solution containing acetone and emulsifier in the same concentrations as the test compound formulation, but containing no test compound, were also sprayed on infested plants. The sprayed plants were held at 80±5 percent relative humidity for six days, after which a mortality count of motile forms was made. Microscopic examination for motile forms was made on the leaves of the test plants. Any individual which was capable of locomotion upon prodding was considered living.

[3] = Peroral toxicity to mammals (rat); conditions: in vivo, po, mortality rate of 50 percent, read-out: A.O. Rat LD50
Description: Certain of these compositions were also evaluated to determine their peroral toxicity to mammals. The animal selected for this experiment was the rat. The test results obtained are expressed in terms of the number of milligrams of compositions per kilogram of weight of the animal required to achieve a mortality rate of 50 percent (LD50).

CN(SSC(C)(C)C)C(=O)ON=C1SC(C)(C)C(=O)N1C
H. Fly, pesticidal activity rating [1]: A | Mite, pesticidal activity rating [2]: C | LD50 [3]: 299 mg/kg

CN(SSC(C)(C)C)C(=O)ON=C1SCCS1
H. Fly, pesticidal activity rating [1]: A | Mite, pesticidal activity rating [2]: C | LD50 [3]: 5.6 mg/kg
